Test in all cases: DTP human tumour cell line panel, 48 h
The test system of assay [1] is LXFL 529 NSCLC.
The subject of assay [2] is KM20L2 colon.
Assay [3] has as its system DLD-1 colon.
Assay [4] concerns M19-MEL melanoma.
For assay [5], the system named is RXF-631 renal.
In assay [6] the test system is HOP-18 NSCLC.
Assay [7] concerns XF 498 CNS.
The test system of assay [8] is MDA-N.
For assay [9], the system named is SNB-78 CNS.

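How tested: cells in 96-well plates exposed to compound for 48 hours at five concentrations. GI50 marks 50% less growth. TGI: concentration producing complete growth inhibition.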

Usually TGI stands for the concentration giving total growth inhibition. In the case of `C=CCN=C1NC(=O)C(CC(=O)Nc2cccc(Cl)c2)S1` (stereo unspecified), the TGI in [1], in assay [2], in assay [3], in [4], in assay [5] and in assay [6] was above 100 µM in each case. This compound also registered a TGI in assay [7] above 100 µM.

Compound `O=C(O)c1nn(-c2ccc(Cl)cc2)c2c1C(=O)c1ccccc1C2=O` gave a TGI in [8] above 100 µM.

On to `OCC1CC2C=CCC(C2)C1` (stereo unspecified), for which the TGI in assay [1], in assay [2], in assay [3], in [4], in assay [9] and in assay [6] was above 100 µM in each case. Further, the TGI in [7] is above 100 µM.

In assay [8], `CN1CCN(c2ccncc2S(=O)(=O)N2CCN(C)CC2)CC1` showed a TGI above 100 µM.

For the compound `O=C(N/C(=C\c1cccc([N+](=O)[O-])c1)c1nc2c3c(ccc2[nH]1)C(=O)c1ccccc1C3=O)c1ccccc1`, the TGI in assay [1], in assay [2], in [3], in [9], in assay [6] and in assay [7] was above 100 µM each time.

As for `CCCC[C@H](CCc1ccccc1)N(C(=O)OC)N1CCC[C@H]1COC`, the TGI in [1] came out at 39.6 µM; in assay [2], 30.2 µM; in assay [3] it was 34.8 µM; in assay [4], 40.4 µM; in [9] it was 47.3 µM; in assay [5], 32.4 µM. Besides, the TGI is 53.1 µM in [6] and 28.5 µM in assay [7].

As a reminder, the GI50 is the concentration that inhibits growth by half. On to `CN1C(c2ccccc2)CC(=NO)CC1c1ccccc1` (stereo unspecified), for which the TGI in [1], in assay [2], in assay [3], in assay [4], in assay [9] and in assay [5] was above 100 µM each time. In addition, the GI50 in assay [8] is 76 µM.

Regarding `CCCC(=O)Oc1ccc(/C=N/NC(N)=S)nc1`, the TGI in assay [1], in [2], in assay [3], in assay [4], in [9] and in assay [6] was above 100 µM in each case.

On to `CSc1ccc(Cc2cc(C(C)(C)C)cc(C(C)(C)C)c2O)cc1`, for which the TGI in assay [1] stood at 26.9 µM; in [2], 28.2 µM; in assay [3] it was 27.1 µM; in assay [4], 31.1 µM; in assay [9], 28.8 µM; in assay [5], 29.4 µM. The concentration for total growth inhibition (TGI) came out at 33.8 µM in assay [6] and 31.8 µM in [7].

On to `CCCCSC1CCSc2c1ccc1ccccc21` (stereo unspecified), for which the TGI in assay [2] is above 100 µM; in assay [3] it was above 100 µM; in assay [4], above 100 µM; in [9], above 100 µM; in assay [6], above 100 µM; in assay [7] it was 63.9 µM.

With `Nc1ccc(C(=O)CC2(O)C(=O)Nc3ccccc32)cc1` (stereo unspecified), the TGI in [1], in [2], in [3], in [4], in [9] and in assay [7] was above 100 µM in each case.

For the compound `Clc1ccc(-c2nnc(-c3nn(-c4ccccc4)c4nc5ccccc5nc34)o2)cc1`, the TGI in [1], in assay [2], in assay [3], in [4], in assay [9] and in assay [6] was above 100 µM in each case. This compound also returned a TGI in [7] of 64.6 µM.

Consider `CC1CCCc2c1n[nH]c2CC1CC(=O)NC(=O)C1` (stereo unspecified), for which the TGI in assay [1], in assay [2], in assay [3], in assay [4], in assay [9] and in assay [5] was above 100 µM each time. Besides, the TGI in assay [6] and in assay [7] was above 100 µM each time.

For the compound `COC(=O)CCCCCOS(=O)(=O)c1ccc(C)cc1`, the concentration for total growth inhibition (TGI) in assay [1], in assay [2], in assay [3], in assay [4], in assay [9] and in assay [5] was above 100 µM in each case. The TGI in assay [6] and in assay [7] was above 100 µM throughout.

Consider `COc1cccc(/C=C2\N=C(Cl)OC2=O)c1O`, for which the TGI in [1], in [2], in [3], in [9], in [6] and in [7] was above 100 µM each time.

For `CC(C)(C)c1cc[n+](C[n+]2ccc(C(C)(C)C)cc2)cc1`, the TGI in assay [8] is above 100 µM.

Compound `Cc1ccc(S(=O)(=O)NC(Cc2ccccc2)C(=O)CCl)cc1` (stereo unspecified) had a TGI in assay [8] of 27.8 µM.

`O=C1CC=C2C3CC4N(CCC45c4ccccc4N1C25)C/C3=C\CO` (stereo unspecified) returned a TGI in assay [8] above 100 µM.

For `C=C1C2CC(OC(C)=O)C3(C)C(c4ccoc4)OC(=O)[C@@H](O)[C@]13OC1C[C@H](OC(C)=O)C(C)(C)[C@H](C(O)C(=O)OC)[C@]12C` (stereo partly specified), the TGI in [1], in assay [2], in [3], in assay [4], in assay [9] and in [6] was above 100 µM each time.

These data come from PubChem BioAssay (NCI).
